Measured values taken from patent publication US20240294488A1, “ISOTOPOLOGES, SALTS, CRYSTALLINE FORMS, STEREOISOMERS, OF METHYLONE AND ETHYLONE AND METHODS OF USE THEREOF” (Terran Biosciences Inc., priority 2021, published 2024).
Counter-ions that a name gives are not always drawn.

What was measured:
[1] = Metabolic stability in human liver microsomes; format: in vitro ADME; conditions: pooled liver microsomes, pH 7.4; human liver microsomes 0.5 mg/mL, 1 μM compound, NADPH, 0-45 min
Protocol: Pooled liver microsomes are purchased from a reputable commercial supplier. Microsomes are stored at […] prior to use. Microsomes (final protein concentration 0.5 mg/mL), 0.1 M phosphate buffer pH 7.4 and test compound (final substrate concentration 1 μM; final DMSO concentration 0.25%) are preincubated at 37° C. prior to the addition of NADPH (final concentration 1 mM) to initiate the reaction. A minus cofactor control incubation is included for each compound tested where 0.1 M phosphate buffer pH 7.4 is added instead of NADPH (minus NADPH). Two control compounds are included with each species. All incubations are performed singularly for each test compound. Each compound is incubated for 0, 5, 15, 30 and 45 min. The control (minus NADPH) is incubated for 45 min only. The reactions are stopped by transferring incubate into acetonitrile at the appropriate time points, in a 1:3 ratio. The termination plates are centrifuged at 3,000 rpm for 20 min at 4° C. to precipitate the protein.
From a plot of ln peak area ratio (compound peak area/internal standard peak area) against time, the gradient of the line is determined. Subsequently, half-life and intrinsic clearance are calculated using the equations below:
where V=Incubation volume (μL)/Microsomal protein (mg)
Relevant control compounds were assessed, ensuring intrinsic clearance values fall within the specified limits (if available).

[2] = test system: participants diagnosed with at least moderate post-traumatic stress disorder (PTSD); assay: Double-blind, randomized, placebo-controlled clinical trial of methylone-assisted psychotherapy in PTSD; format: in vivo, human; conditions: for CAPS-5 assessments: Intervening Session 1C, 2C, 3C and Study Conclusion; for daytime sleepiness as measured by ESS / change in CAPS-5 assessment / clinician-rated functional impairment score as measured by SDS / depression as measured by HAM-D: at Study Conclusion; for change in CAPS-5 assessment: vs placebo group, with psychotherapy
Protocol: A multicenter, randomized, double-blind, placebo-controlled trial is conducted to assess the efficacy and safety of methylone-assisted psychotherapy versus psychotherapy with placebo control in participants diagnosed with at least moderate post-traumatic stress disorder (PTSD).
This multicenter, randomized, double-blind, placebo-controlled trial is conducted at various sites in the United States with IRB approval from each study site. A flexible dose of methylone hydrochloride salt or placebo, followed by a supplemental half-dose unless contraindicated by patient's previous response or medical history, is also administered during the Treatment Period with psychotherapy in at least 3 blinded monthly Experimental Sessions. The Supplemental Dose extends the duration of drug effects on the participants during an Experimental Session. Methylone test groups are further subdivided into specific groups receiving only racemic methylone hydrochloride salt, S-methylone hydrochloride salt, or R-methylone hydrochloride salt. An optional Risk Evaluation and Mitigation Strategy (REMS) Protocol may be implemented for the racemic methylone, S-methylone, and placebo-groups. The Treatment Period lasts for approximately 12 weeks. During the Treatment Period, each Experimental Session is followed by three Intervening Sessions of non-drug psychotherapy. Each Experimental Session involves an overnight stay. The Primary Outcome measure, the change in Clinician Administered PTSD Scale for DSM-5 (CAPS-5), is determined by a blinded Independent Rater (IR) pool multiple times throughout the study. The study consists of separate periods for each participant. Initially, prospective participants undergo a Screening Period involving an initial eligibility assessment, a medical history intake, informed consent, and enrollment of eligible participants. Next, a Preparation Period is undertaken for enrolled participants involving medication tapering and clinical baseline assessments to confirm each participant meets enrollment criteria. As part of the Preparation Period, a detailed assessment of co-morbidities to PTSD is recorded. Participants may remain on prescribed courses of selective serotonin reuptake inhibitor (SSRI) or serotonin and norepinephrine reuptake inhibitor (SNRI) treatment. Dosages and/or frequency of administration of a prescribed SSRI or SNRI may be adjusted to fit within study parameters. Participants may be required to taper a prescribed course of medication in order to maintain eligibility within the study. The Treatment Period consists of three monthly Experimental Sessions and associated Intervening Sessions of integrative behavioral psychotherapy. The Treatment Period lasts approximately 12 weeks. Following the Treatment Period is a Follow-up Period and Study Conclusion. During the Follow-up Period and Study Conclusion, participants complete 4 weeks with no study visits, followed by a Study Conclusion visit.
This study compares the effects of three blinded Experimental Sessions of psychotherapy in combination with flexible doses of methylone or placebo administered as described below. Non-drug preparatory and intervening psychotherapy sessions are also included. Patient's weight is determined for dosage calculation. Initial dose is 100 mg unless this will result in a dosage of less than 1.5 mg/kg of patient weight. Initial dose thereby adjusted upward in 25 mg increments to deliver the lowest dose possible of at least 1.5 mg/kg of patient weight. Initial dose for Experimental Session 2 and 3 is cumulative dose calculated by adding the initial dose plus REMS protocol dose used the previous Experimental Session for each patient.
Randomization occurs prior to the initiation of Experimental Session 1. Each participant is provided the next randomized number in a sequence by a blinded study monitor. […]

| SMILES | half-life at 1 μM [1] | microsomal CLint at 1 μM [1] | CAPS-5 assessments ([2]; vs placebo-treated controls) | total dosage of drug needed for significant mean reduction in CAPS-5, compared to racemic methylone-treated subgroup ([2]; PTSD participants) | daytime sleepiness as measured by ESS [2] | change in CAPS-5 assessment [2] | clinician-rated functional impairment score as measured by SDS ([2]; vs placebo-treated controls) | depression as measured by HAM-D ([2]; vs placebo-treated controls) | adverse anxiogenic incidents ([2]; PTSD participants, vs placebo-treated controls) |
| --- | --- | --- | --- | --- | --- | --- | --- | --- | --- |
| CN[C@@H](C)C(=O)c1ccc2c(c1)OCO2 [(S)-Methylone Hydrochloride, (S)-1-(Benzo[d][1,3]dioxol-5-yl)-2-(methylamino)propan-1-one Hydrochloride] | 2.28 h | 10.1 µL/min/mg | Significant improvements in CAPS-5 assessments | lower total dosage of drug | a significant improvement in lessening daytime sleepiness | a significant mean reduction in CAPS-5 assessment | a significant improvement in clinician-rated functional impairment score | a significant improvement depression | – |
| CN[C@H](C)C(=O)c1ccc2c(c1)OCO2 [(R)-Methylone Hydrochloride, (R)-1-(Benzo[d][1,3]dioxol-5-yl)-2-(methylamino)propan-1-one Hydrochloride] | 3.38 h | 6.82 µL/min/mg | Significant improvements in CAPS-5 assessments | – | a significant improvement in lessening daytime sleepiness | a significant mean reduction in CAPS-5 assessment | a significant improvement in clinician-rated functional impairment score | a significant improvement depression | without a significant increase in adverse anxiogenic incidents |
| CNC(C)C(=O)c1ccc2c(c1)OCO2 (racemic) [(rac)-Methylone Hydrochloride, 3,4-methylenedioxy-N-methylcathinone hydrochloride] | 2.62 h | 8.84 µL/min/mg | Significant improvements in CAPS-5 assessments | – | a significant improvement in lessening daytime sleepiness | a significant mean reduction in CAPS-5 assessment | a significant improvement in clinician-rated functional impairment score | a significant improvement depression | – |
